# Measured values as given in patent publication US20200197335A1, “CANCER THERAPEUTIC” (priority 2017, published 2020).
# Read-outs that look alike come from different tables or passages of the source.
# Columns and labels:
# [1] = cited from earlier work
# Squamous Cell Carcinoma = details: propranolol 160 mg daily with curcumin and celebrex, five weeks; reduced to 40 mg daily
# [2] = system: Stage IV Adenocarcinoma of Lung; assay: Treatment of Patient X with Stage IV adenocarcinoma of lung, followed by repeat PET CT; assay type: in vivo, human
# Procedure: Commenced RAS modulation: • Aspirin: 300mg once daily • Start Date: 20 Jun. 2015
# 2015 • + Cilazapril: 2.5 mg once daily • Start Date: 26 Nov. 2015
# 2015 • + Doxycycline: 100mg once daily • Start Date: 20 Feb. 2016
# [3] = piperine included in the curcumin formulation; cited from earlier work
# [4] = system: several tumoral cell lines; details: cited from earlier work
compound,measurement,setting,value
"CC(C)NCC(O)COc1cccc2ccccc12 (racemic) [Propranolol, (RS)-1-(1-methylethylamino)-3-(1-naphthyloxy)propan-2-ol]",Uncommon side effects,[1]; Uncommon (0.1-0.9%),"Gastrointestinal disturbance, such as nausea, vomiting, diarrhoea"
same,Adverse effects leading to dose reduction,Squamous Cell Carcinoma,feeling ‘weak in the legs’ and had two episodes of falls
"CC(=O)Oc1ccccc1C(=O)O [Aspirin, acetylsalicylic acid]",Common side effects,[1]; in vivo,"Increased bleeding tendencies, dyspepsia"
same,Rare side effects,[1]; in vivo,"Thrombocytopenia, agranulocytosis, aplastic anaemia, hypersensitivity reactions, angio-oedema, allergic oedema, anaphylactic reactions including shock"
same,Uncommon side effects,[1]; in vivo,"Urticaria, rhinitis, dyspnoea"
same,Repeat PET CT,"[2]; 28 Jul. 2015, Aspirin 300mg once daily from 20 Jun. 2015",static appearance with low levels of activity remaining at both the primary and left lung metastasis sites
"Cc1ccc(-c2cc(C(F)(F)F)nn2-c2ccc(S(N)(=O)=O)cc2)cc1 [Celecoxib, 4-[5-(4-methylphenyl)-3-(trifluoromethyl)pyrazol-1-yl]benzenesulfonamide]","Diarrhoea, frequency",[1]; listed as common,4-10%
same,"Headache, frequency",[1]; listed as common,10-15%
same,"Hypertension, frequency",[1]; listed as common,2-12%
same,"Nausea, frequency",[1]; listed as common,3-7%
same,"Gastrointestinal haemorrhage, frequency",[1]; listed as serious,less than 0.1%
same,"Gastrointestinal perforation, frequency",[1]; listed as serious,less than 0.1%
same,"Thrombosis, frequency",[1]; listed as serious,1.2%
"CCOC(=O)[C@H](CCc1ccccc1)N[C@H]1CCCN2CCC[C@@H](C(=O)O)N2C1=O [Cilazapril, (4S,7S)-7-[[(2S)-1-Ethoxy-1-oxo-4-phenylbutan-2-yl]amino]-6-oxo-1,2,3,4,7,8,9,10-octahydropyridazino[1,2-a]diazepine-4-carboxylic acid]",Common side effects,[1]; in vivo,"Fatigue, hypotension, dyspepsia, nausea and other gastrointestinal disturbances, headache, rash and coughing"
same,Rare side effects,[1]; in vivo,"Skin rashes including erythema multiforme and toxic epidermal necrolysis may occur. Photosenstivity, alopecia and other hypersensitivity reactions"
same,Uncommon side effects,[1]; in vivo,"Tachycardia, palpitations and chest pain"
CCCCc1nc(Cl)c(CO)n1Cc1ccc(-c2ccccc2-c2nn[nH]n2)cc1 [Losartan],Common side effects,[1]; in vivo,"Cold or flu symptoms such as stuffy nose, sneezing, sore throat, fever, muscle cramps, pain in the legs or back, stomach pain, diarrhoea, headache, dizziness, tired feeling, sleep problems (insomnia)"
"CN(C)C(=N)N=C(N)N [Metformin, N,N-dimethylimidodicarbonimidic diamide]","Mild gastrointestinal symptoms (diarrhoea, nausea, vomiting, loss of appetite), frequency",[1]; especially during the initial treatment period,> 1/10
same,"Metallic taste, frequency",[1]; worded 'Common' within the Very Rare paragraph,3%
C#Cc1cccc(Nc2ncnc3cc(OCCOC)c(OCCOC)cc23)c1 [Tarceva],Repeat PET CT,"[2]; 1 Apr. 2015, on Tarceva",new right para-aortic node with high avidity
same,Repeat PET CTs,"[2]; 12 Jul. 2011 to 5 Nov. 2013, Tarceva 150mg once daily from 2 Jun. 2011",remission of the cancer
"O=C(C=CC=Cc1ccc2c(c1)OCO2)N1CCCCC1 [piperine, 1-[5-(1,3-Benzodioxol-5-yl)-1-oxo-2,4-pentadienyl]piperidine]",Effect on bioavailability of Curcumin,[3],increases the bioavailability of Curcumin
[Pt(dmba)(aza-N1)(dmso)] complex 1,IC50 relative to cisplatin,[4],lower IC50 than cisplatin
